Literature values, collected in PubChem BioAssay AID1259409 (Chemical Carcinogenesis Research Information System (CCRIS), 2018).

Test system: rodent chemically induced tumor inhibition, incidence and multiplicity
Test: CCRIS tumor inhibitor studies
Conditions: for outcome: Target Tissue: Type of Lesion: THYROID GLAND: ADENOMA

In the case of C=CCN=C=S, the “tumour outcome (control, treated, inhibition, significance)” value (Carcinogen: 4-(METHYLNITROSAMINO)-1-(3-PYRIDYL)-1-BUTANONE, 64091-91-4, Dose [Inhibitor]: 0, 1 UMOL ONCE 2 HR PRIOR TO CARCINOGEN DOSE (STUDY DURATION: 16 WK), Route [Inhibitor]: GAVAGE, Species: MOUSE, Strain/Sex: STRAIN-A/FEMALE, Target Tissue: Type of Lesion: LUNG: ADENOMA, Dose [Carcinogen]: 10 UMOL IN 0.1 ML SALINE ONCE, Promoter: NONE USED) is given as 100%, 100%, 0%, not significant and the “tumour outcome (control, treated, inhibition, significance)” value (Carcinogen: 4-(METHYLNITROSAMINO)-1-(3-PYRIDYL)-1-BUTANONE, 64091-91-4, Dose [Inhibitor]: 0, 5 UMOL ONCE 2 HR PRIOR TO CARCINOGEN DOSE (STUDY DURATION: 16 WK), Route [Inhibitor]: GAVAGE, Species: MOUSE, Strain/Sex: STRAIN-A/FEMALE, Target Tissue: Type of Lesion: LUNG: ADENOMA, Dose [Carcinogen]: 10 UMOL IN 0.1 ML SALINE ONCE, Promoter: NONE USED) is given as 100%, 100%, 0%, not significant.
In the case of CCNc1nc(Cl)nc(NC(C)C)n1, the outcome (Carcinogen: N-NITROSOBIS(2-HYDROXYPROPYL)AMINE, 53609-64-6, Dose [Inhibitor]: 0, 400 PPM IN DIET FOR 25 WK BEGINNING 9 WK POST CARCINOGEN TREATMENT (STUDY DURATION: 35 WK), Route [Inhibitor]: ORAL, Species: RAT, Strain/Sex: F344/FEMALE, Dose [Carcinogen]: 2000 MG/KG 1 WK POST BILATERAL OVARIECTOMY, Promoter: SULFADIMETHOXINE, 122-11-2) is listed as 0/12 (0%), 0/15 (0%), 0%, not significant, the “tumour outcome (control, treated, inhibition, significance)” value (Carcinogen: N-NITROSOBIS(2-HYDROXYPROPYL)AMINE, 53609-64-6, Dose [Inhibitor]: 0, 400 PPM IN DIET FOR 25 WK BEGINNING 9 WK POST CARCINOGEN TREATMENT (STUDY DURATION: 35 WK), Route [Inhibitor]: ORAL, Species: RAT, Strain/Sex: F344/FEMALE, Target Tissue: Type of Lesion: THYROID GLAND: CARCINOMA, Dose [Carcinogen]: 2000 MG/KG 1 WK POST BILATERAL OVARIECTOMY, Promoter: SULFADIMETHOXINE, 122-11-2) is listed as 10/12 (83%), 9/15 (60%), 28%, not significant and the outcome (Carcinogen: N-NITROSOBIS(2-HYDROXYPROPYL)AMINE, 53609-64-6, Dose [Inhibitor]: 0, 400 PPM IN DIET FOR 27 WK BEGINNING 9 WK POST CARCINOGEN TREATMENT (STUDY DURATION: 37 WK), Route [Inhibitor]: ORAL, Species: RAT, Strain/Sex: F344/FEMALE, Dose [Carcinogen]: 2000 MG/KG BW 1 WK POST BILATERAL OVARIECTOMY, Promoter: SULFADIMETHOXINE, 122-11-2) is listed as 0/12 (0%), 0/15 (0%), 0%, not significant. The “tumour outcome (control, treated, inhibition, significance)” value (Carcinogen: N-NITROSOBIS(2-HYDROXYPROPYL)AMINE, 53609-64-6, Dose [Inhibitor]: 0, 400 PPM IN DIET FOR 27 WK BEGINNING 9 WK POST CARCINOGEN TREATMENT (STUDY DURATION: 37 WK), Route [Inhibitor]: ORAL, Species: RAT, Strain/Sex: F344/FEMALE, Target Tissue: Type of Lesion: THYROID GLAND: CARCINOMA, Dose [Carcinogen]: 2000 MG/KG BW 1 WK POST BILATERAL OVARIECTOMY, Promoter: SULFADIMETHOXINE, 122-11-2) was 10/12 (83%), 8/15 (53%), 36%, not significant.
For O=C1COc2ccccc21, the “tumour outcome (control, treated, inhibition, significance)” value (Carcinogen: BENZO[A]PYRENE, 50-32-8, Dose [Inhibitor]: 0.034 MMOL/G IN DIET FOR 5 WK BEGINNING 1 WK PRIOR TO CARCINOGEN TREATMENT (STUDY DURATION: 21 WK), Route [Inhibitor]: ORAL, Species: MOUSE, Strain/Sex: ICR/FEMALE, Target Tissue: Type of Lesion: FORESTOMACH: TUMOR, Dose [Carcinogen]: 1 MG IN 0.2 ML CORN OIL 2/WK FOR 4 WK, Promoter: NONE USED) is listed as 95%, 89%, 6%, not significant.
In the case of Cc1c(O)cc2c(c1C)OC(C)(CCCC(C)CCCC(C)CCCC(C)C)CC2 (stereo not drawn), the “tumour outcome (control, treated, inhibition, significance)” value (Carcinogen: N-NITROSODIETHYLAMINE, 55-18-5, Dose [Inhibitor]: 0, 5% IN BASAL DIET BEGINNING AT 8 WK OF AGE AND CONTINUING FOR 22 MO (STUDY DURATION: 22 MO), Route [Inhibitor]: ORAL, Species: MOUSE, Strain/Sex: 6HF1/MALE, Target Tissue: Type of Lesion: ESOPHAGUS: SQUAMOUS CELL CARCINOMA, Dose [Carcinogen]: 100 MG/L IN DRINKING WATER DURING 11-13 WK OF AGE, Promoter: NONE USED) is listed as 6/50 (12%), 0/50 (0%), 100%, not calculated, the “tumour outcome (control, treated, inhibition, significance)” value (Carcinogen: N-NITROSODIETHYLAMINE, 55-18-5, Dose [Inhibitor]: 0, 5% IN BASAL DIET BEGINNING AT 8 WK OF AGE AND CONTINUING FOR 22 MO (STUDY DURATION: 22 MO), Route [Inhibitor]: ORAL, Species: MOUSE, Strain/Sex: 6HF1/MALE, Target Tissue: Type of Lesion: FORESTOMACH: SQUAMOUS CELL CARCINOMA, Dose [Carcinogen]: 100 MG/L IN DRINKING WATER DURING 11-13 WK OF AGE, Promoter: NONE USED) is listed as 82%, 72%, 12%, not calculated and the “tumour outcome (control, treated, inhibition, significance)” value (Carcinogen: N-NITROSODIETHYLAMINE, 55-18-5, Dose [Inhibitor]: 0, 5% IN BASAL DIET BEGINNING AT 8 WK OF AGE AND CONTINUING FOR 22 MO (STUDY DURATION: 22 MO), Route [Inhibitor]: ORAL, Species: MOUSE, Strain/Sex: 6HF1/MALE, Target Tissue: Type of Lesion: LIVER: TUMOR, Dose [Carcinogen]: 100 MG/L IN DRINKING WATER DURING 11-13 WK OF AGE, Promoter: NONE USED) is listed as 39/50 (78%), 40/50 (80%), -3%, not calculated. For the same compound, the “tumour outcome (control, treated, inhibition, significance)” value (Carcinogen: N-NITROSODIETHYLAMINE, 55-18-5, Dose [Inhibitor]: 0, 5% IN BASAL DIET BEGINNING AT 8 WK OF AGE AND CONTINUING FOR 22 MO (STUDY DURATION: 22 MO), Route [Inhibitor]: ORAL, Species: MOUSE, Strain/Sex: 6HF1/MALE, Target Tissue: Type of Lesion: LUNG: TUMOR, Dose [Carcinogen]: 100 MG/L IN DRINKING WATER DURING 11-13 WK OF AGE, Promoter: NONE USED) was 42/50 (84%), 24/50 (48%), 43%, p<0.05.
For CN(C(=O)c1c(O)c2ccccc2n(C)c1=O)c1ccccc1, the “tumour outcome (control, treated, inhibition, significance)” value (Carcinogen: N-METHYL-N-NITROSOUREA, 684-93-5, Dose [Inhibitor]: 0, 25 MG/KG/D IN DRINKING WATER FOR 12 MO BEGINNING 1 WK POST CARCINOGEN DOSE (STUDY DURATION: 12 MO), Route [Inhibitor]: ORAL, Species: RAT, Strain/Sex: LOBUND WISTAR/MALE, Target Tissue: Type of Lesion: SEMINAL VESICLE/PROSTATE: TUMOR, Dose [Carcinogen]: 30 MG/KG ONCE AT 90 D OF AGE, Promoter: TESTOSTERONE PROPIONATE, 57-85-2) is given as 90%, 40%, 56%, not calculated.
For CCCCC1C(=O)N(c2ccccc2)N(c2ccccc2)C1=O, the “tumour outcome (control, treated, inhibition, significance)” value (Carcinogen: N-NITROSOBIS(2-OXOPROPYL)AMINE, 60599-38-4, Dose [Inhibitor]: 0, 0.25% IN DIET FOR 27 WK BEGINNING POST LAST CARCINOGEN DOSE (STUDY DURATION: 32 WK), Route [Inhibitor]: ORAL, Species: HAMSTER, Strain/Sex: SYRIAN/FEMALE, Target Tissue: Type of Lesion: PANCREAS: ADENOCARCINOMA, Dose [Carcinogen]: 10 MG/KG 1/WK FOR 5 WK, Promoter: NONE USED) is listed as 20/28 (71%), 7/19 (37%), 48%, p<0.05.
